Measured values as given in patent publication US10828315B2 (Madrigal Pharmaceuticals, Inc., priority 2013, dated 2020).
pIC50: −log10 of the molar value. “Also recorded” adds a separate entry of the source. Like-named read-outs stand apart in the source and are kept apart here.

Legend:
[1] = test system: Hsp90 client proteins (EGFR, MET, CDC2), Hsp70, DNA damage markers; assay: Pharmacodynamics in SCLC xenograft tumors; assay type: in vivo
MCF-7 xenografts = conditions: mouse, in vivo
Description: MCF-7 breast cancer cells were purchased from ATCC. The cells were maintained in vitro as a monolayer culture in McCoy's 5a Medium. Fetal bovine serum was then added to the medium. The final concentration of fetal bovine serum was 10%. Cells were cultured at 37° C. and 5% CO2. The tumor cells were routinely sub-cultured twice weekly by trypsin-EDTA treatment. Cells in an exponential growth phase were harvested and counted for tumor inoculation.
75 24-30 g, 10-13 week old, female CD-1 nude mice were inoculated with the MCF-7 cells (5.0×10^6/mouse) orthotopically in mammary fat pad (0.1 mL/mouse). 60 days estrogen pellets was implanted the day prior to cell implantations. When the average tumor volume reached about 100-225 mm^3, 40 of the inoculated mice were selected based on tumor growth and randomly grouped into 5 treatment groups (8 mice per group) according to the following table. Mice that were not put on treatment were euthanized.
During the treatment period, the implanted tumors were measured by caliper twice per week. […] Animal body weights were also weighed and recorded 5× per week.

[2] = test system: human SCLC tumor xenografts; assay: Antitumor activity in human SCLC tumor xenografts; assay type: in vivo, mice
SK-OV-3 xenografts = assay: Antitumor activity in SK-OV-3 ovarian cancer xenografts; assay type: in vivo, female Balb/c nude mice; conditions: SDC-TRAP-0063 200 mg/kg group; irinotecan alone and with ganetespib; 200 mg/kg
Description: This model is sensitive to HSP90 inhibition.
However, once the dosing is discontinued all but 200 mg/kg of SDC-TRAP-0063 dose group maintained tumor growth inhibition for a prolonged period of time.

[3] = test system: human urinary bladder cancer cell line SW780; assay: Cytotoxicity assay (CellTiter-Glo, 72 h), SW780; assay type: cell-based; conditions: SW780, 72 hours, read-out: Cytotoxicity (IC50, nM) SW-780
Description: Cytotoxicity of SDC-TRAP molecules was determined in three cancer cell lines. […] 80 μL of CellTiter-Glo was added to each well, followed by room temperature incubation in the dark for 15 minutes. Cell was determined by luminescence. IC50 was calculated using XLfit™ software.

HER2 = HER2 degradation assay with BT-474 cell line (Example 12, FACS); assay type: cell-based, human
[4] = test system: HCT-116 human colorectal xenografts; assay: Mouse xenograft efficacy in HCT-116 colon cancer model; conditions: IV
Description: The cells were maintained in vitro as a monolayer culture in McCoy's 5a Medium. Fetal bovine serum was then be added to the medium. The final concentration of fetal bovine serum was 10%. Cells were cultured at 37° C. and 5% CO2. The tumor cells were routinely sub-cultured twice weekly by trypsin-EDTA treatment. Cells in an exponential growth phase were harvested and counted for tumor inoculation.
100 18-22 g, 5-7 week old, female BALB/cA nude mice were inoculated with the HCT 116 cells (2.0×10^6, 1:1 with Matrigel) subcutaneously on the back of each animal (0.1 mL/mouse). When the average tumor volume reached about 150-250 mm^3, 60 of the inoculated mice was selected based on tumor growth and randomly grouped into 6 treatment groups (10 mice per group) according to the following table.
The administrations were made with 27-gauge IV needle.
During the treatment period, the implanted tumors were measured by caliper twice per week. The tumors were measured for the maximum width (X) and length (Y) and the tumor volumes (V) were calculated using the formula: V=(X^2Y)/2. The differences in the tumor volume between the control and treatment groups were analyzed for significance using the unpaired two-tailed Student's t-test. P<0.05 was considered to be statistically significant. The animal body weights were also weighed and recorded twice per week.

[5] = mouse
Description: 150 ng/mL solution of SDC-TRAP-0002 in methanol was prepared using the internal standard spiking solution. This solution was used to precipitate all plasma samples in the study. 200 μL was pipetted into a 96 deepwell plate over dry ice. 10 μL of 1 mM stock in DMSO was added to a 1.5 mL microfuge tube, then 990 μL of plasma. Samples were mixed by vortex, then 50 μL of each sample was added in triplicate to a 96-well plate containing internal standard solution. This was designated the 0 hour time point sample. 250 μL of the remaining plasma sample was added to each of four 96 deepwell plates—one per time point. Samples were incubated at 37° C. with gentle shaking for 0.25, 0.5, and 1 hour. After each time point, one plate of each sample was removed from the shaker and placed on wet ice for approximately 2 minutes. 50 μL at plasma aliquots (in triplicate) were added to the deepwell plate containing internal standard solution. After the last time point was extracted, the 96 deepwell plate was vortexed, then centrifuged at 2-8° C. 150 μL of supernatant was collected and 25 μL at of water was added. Samples were mixed and analyzed by LC-MS/MS.
990 μL mouse plasma aliquots from a common stock were spiked with 10 μL of 1 mM stock of one of seven SDC-TRAP samples identified in the table below. Each sample was mixed and divided into 250 μL aliquots, each representing time points 0, 15 minutes, 30 minutes or 1 hour. At the prescribed time point, 3×50 μL samples were each mixed with 200 μL of methanol containing internal standard and held on dry ice until all time point samples were extracted. The samples collectively were vortex mixed for 1.5 minutes at 1500 rpm, then centrifuged at 4400 rpm for 10 minutes at 8° C.

[6] = mouse, in vivo; for Tumor Conc.: female, SCID
Description: Using the 10 mM stock solutions of the SDC-TRAP molecule and its Hsp90i binding moiety and effector moiety in DMSO, spiking solutions were prepared at 0.025, 0.05, 0.1, 0.5, 1, 5, 10, 50, 100, 250, and 500 μM in DMSO. 5 μL of each spiking solution was added to a 96-deep well plate.
Quality control standards were prepared from 5 μL of 0.1, 1, and 10 μM calibration standard spiking solution added in triplicate into 96-deep well plate and adding 50 μL of matrix (plasma or homogenized tumor).
To prepare test samples, test plasma was diluted as needed using blank plasma.
Tumor samples were pulverized in liquid nitrogen, weighed, and homogenized in PBS at 5× volume to sample weight. 50 μL of unknown plasma or homogenized tumor sample was mixed with 5 μL of DMSO. The samples were extracted by precipitating calibration standards, QC standards, and unknown samples with 200 μL of internal standard solution. The samples were mixed by vortex at room temperature for approximately 1.5 minutes, then centrifuge at 2-8° C. 150 μL of supernatant was collected and 25 μL of water added. Samples were mixed and analyzed by LC-MS/MS.
Samples of plasma, heart and tumor were excised from a euthanized mouse, homogenized in PBS at 5 times tissue weight and diluted in 5 μL DMSO/50 μL sample. Prior to analysis, 55 μL samples and calibration standards were precipitated in 200 μL methanol in 96-well plates. Samples were mixed on a vortex mixer for 1.5 minutes at 1500 rpm at room temperature, then centrifuged at 4400 rpm for 10 minutes at 8° C. 150 μL of each supernatant was transferred to a well of a new 96-well plate, and 25 μL of water was added and mixed with the sample. […] For the analysis of samples from female SCID mice, a gradient of solvent A (water/0.1% formic acid) and B (acetonitrile/0.1% formic acid) was used as in Table 2 below.
Various SDC-TRAP molecules and appropriate controls were administered to mice and after various time points the plasma and tumor concentration of these molecules was determined.

[7] = SCLC xenograft tumors, 24 hrs after drug exposure

For `CCc1c2c(nc3ccc(OC(=O)N4CCC(CCn5ccc6cc(-n7c(O)nnc7-c7cc(C(C)C)c(O)cc7O)ccc65)CC4)cc13)-c1cc3c(c(=O)n1C2)COC(=O)[C@]3(O)CC` [SDC-TRAP-0063, 4,11-diethyl-4-hydroxy-3,14-dioxo-3,4,12,14-tetrahydro-1H-pyrano[3′,4′:6,7]indolizino[1,2-b]quinolin-9-yl 4-(2-(5-(3-(2,4-dihydroxy-5-isopropylphenyl)-5-hydroxy-4H-1,2,4-triazol-4-yl)-1H-indol-1-yl)ethyl)piperidine-1-carboxylate], the “kinetics of acetyl-histone H3 induction” value ([1]; SCLC xenograft tumors, 24, 72 and 96 hrs) was “gradual increase in H3ac levels, peaking at 96 hr”, the “Hsp90 client proteins (EGFR, MET, CDC2) and Hsp70 expression” value [1, 7] was “slight increase in Hsp70 with no impact on EGFR, MET or CDC2” and the “markers for DNA damage (acetyl-histone H3, p53, p-H2AX)” value [1, 7] was “dramatic increase in markers for DNA damage”. For the same molecule, the “phosphorylation of p53” value ([1]; SCLC xenograft tumors, out to 96 hrs) was “induced by both agents, though more so with SDC-TRAP-0063”, the safety profile (MCF-7 xenografts) was “good safety profile” and the tolerability ([2]; SCLC xenografts) was “very well tolerated”. The “antitumor activity in SCLC xenografts (FIG. 19)” value ([2]; once weekly for three weeks, then drug-free period, SDC-TRAP-0063 100 and 150 mg/kg) was “remarkable and durable antitumor activity compared with irinotecan or ganetespib plus irinotecan”, the “antitumor activity in SK-OV-3 xenografts (FIG. 25)” value (SK-OV-3 xenografts) was “maintains the tumor growth inhibition for several weeks; also recorded: statistically significant inhibitory impact on the growth of SK-OV-3 xenografts” and the IC50 [3] was 261 nM. For the same molecule, the pIC50 (HER2) was 6.10, the tolerability ([4]; HCT-116 xenografts, Q7D×3) was “very well tolerated” and the “antitumor activity in HCT-116 xenografts (FIG. 23)” value ([4]; Q7D×3, then drug-free period, SDC-TRAP-0063 200 and 100 mg/kg, SDC-TRAP-0046 94 mg/kg, irinotecan 67 mg/kg, SYN-01 100 mg/kg) was “remarkable and durable antitumor activity compared with irinotecan or ganetespib plus irinotecan; also recorded: better activity in inhibiting the growth of HCT-116 cells in vivo than either positive control group; also recorded: significant dose-dependent activity”. The “Peak Area Ratio” value ([5]; 0 h, 10 μM) was 17.9, the “Peak Area Ratio” value ([5]; 0.5 h, 10 μM) was 7.77 and the “Peak Area Ratio” value ([5]; 1 h, 10 μM) was 1.98. The “Peak Area Ratio” value ([5]; […], 10 μM) was 15.6, the “% Remaining (1 h)” value ([5]; plasma, 1 h, 10 µM) was 11.1% and the “% Remaining (1 h, 37° C.)” value ([5]; plasma, 1 h, 10 µM) was 11.1%. For the same molecule, the “% Remaining (1 h)” value ([5]; plasma, 1 h, 10 μM) was 11.1%, the “Tumor Conc.” value ([6]; 6 h) was 1.61 nmol/g of tissue and the “Tumor Conc.” value ([6]; 24 h) was 0.203 nmol/g of tissue. The “Tumor Conc.” value ([6]; 48 h) was 0.0188 nmol/g of tissue, the “Tumor Conc.” value ([6]; […]) was 6.43 nmol/g of tissue and the “Plasma Conc.” value [6] was “BQL”. The “tumor targeting (tissue distribution in plasma, tumor and heart)” value ([6]; iv, 50 mg/kg) was “selectively targets and accumulates in tumor cells”.
